Laboratory results as given in the kinase profiling compilation of Christmann-Franck et al. (2016).
“And” between values parts separate entries of the source, which are not always exact repeats. Identical values can stand only once.

Columns and labels:
[1] = biological target: TTK (human) (UniProt P33981); test: SelectScreen, TR FRET
[2] = biological target: FGFR4 (human) (UniProt P22455); test: KINOMEscan competition binding; details: compound 10.0 µM
[3] = biological target: PLK1 (human) (UniProt P53350); test: KINOMEscan competition binding; details: compound 10.0 µM
[4] = system: EGFR (human), P00533 [747-751 del / S ins]; test: KINOMEscan competition binding; details: compound 10.0 µM
[5] = system: EGFR (human), P00533 [G719C; 746-750 del]; test: KINOMEscan competition binding; details: compound 10.0 µM
[6] = biological target: PTK2B (human) (UniProt Q14289); test: KINOMEscan competition binding; details: compound 10.0 µM
[7] = system: EGFR (human), P00533 [A750P; 747-749 del]; test: KINOMEscan competition binding; details: compound 10.0 µM
[8] = biological target: CAMKK2 (human) (UniProt Q96RR4); test: KINOMEscan competition binding; details: compound 10.0 µM
[9] = biological target: MET (human) (UniProt P08581); test: KINOMEscan competition binding; details: compound 10.0 µM
[10] = biological target: MYLK (human) (UniProt Q15746); test: KINOMEscan competition binding; details: compound 10.0 µM
[11] = biological target: TTK (human) (UniProt P33981); test: KINOMEscan competition binding; details: for kinase still bound, per cent of control: compound 10.0 µM
[12] = system: EGFR (human), P00533 [G719S]; test: KINOMEscan competition binding; details: compound 10.0 µM
[13] = biological target: PTK2 (human) (UniProt Q05397); test: KINOMEscan competition binding; details: compound 10.0 µM
[14] = biological target: TNK1 (human) (UniProt Q13470); test: KINOMEscan competition binding; details: compound 10.0 µM
[15] = system: EGFR (human), P00533 [P753S; 747-752 del]; test: KINOMEscan competition binding; details: compound 10.0 µM
[16] = biological target: PLK4 (human) (UniProt O00444); test: KINOMEscan competition binding; details: compound 10.0 µM
[17] = biological target: RPS6KA2 KD2 (human) (UniProt Q15349); test: KINOMEscan competition binding; details: compound 10.0 µM
[18] = biological target: IGF1R (human) (UniProt P08069); test: KINOMEscan competition binding; details: compound 10.0 µM
[19] = biological target: GAK (human) (UniProt O14976); test: KINOMEscan competition binding; details: compound 10.0 µM
[20] = biological target: DCLK1 (human) (UniProt O15075); test: KINOMEscan competition binding; details: compound 10.0 µM
[21] = system: EGFR (human), P00533 [L861Q]; test: KINOMEscan competition binding; details: compound 10.0 µM
[22] = biological target: SLK (human) (UniProt Q9H2G2); test: KINOMEscan competition binding; details: compound 10.0 µM
[23] = biological target: INSR (human) (UniProt P06213); test: KINOMEscan competition binding; details: compound 10.0 µM
[24] = biological target: EGFR (human) (UniProt P00533); test: KINOMEscan competition binding; details: compound 10.0 µM
[25] = biological target: FER (human) (UniProt P16591); test: KINOMEscan competition binding; details: compound 10.0 µM
[26] = biological target: STK33 (human) (UniProt Q9BYT3); test: KINOMEscan competition binding; details: compound 10.0 µM
[27] = biological target: INSRR (human) (UniProt P14616); test: KINOMEscan competition binding; details: compound 10.0 µM
[28] = biological target: ULK2 (human) (UniProt Q8IYT8); test: KINOMEscan competition binding; details: compound 10.0 µM
[29] = biological target: ALK (human) (UniProt Q9UM73); test: KINOMEscan competition binding; details: compound 10.0 µM
[30] = biological target: DAPK2 (human) (UniProt Q9UIK4); test: KINOMEscan competition binding; details: compound 10.0 µM
[31] = system: EGFR (human), P00533 [L858R]; test: KINOMEscan competition binding; details: compound 10.0 µM
[32] = biological target: PLK3 (human) (UniProt Q9H4B4); test: KINOMEscan competition binding; details: compound 10.0 µM
[33] = biological target: DAPK3 (human) (UniProt O43293); test: KINOMEscan competition binding; details: compound 10.0 µM
[34] = system: EGFR (human), P00533 [752-759 del]; test: KINOMEscan competition binding; details: compound 10.0 µM
[35] = biological target: MKNK2 (human) (UniProt Q9HBH9); test: KINOMEscan competition binding; details: compound 10.0 µM

TTK (human), sequence (P33981 whole entry, looked up): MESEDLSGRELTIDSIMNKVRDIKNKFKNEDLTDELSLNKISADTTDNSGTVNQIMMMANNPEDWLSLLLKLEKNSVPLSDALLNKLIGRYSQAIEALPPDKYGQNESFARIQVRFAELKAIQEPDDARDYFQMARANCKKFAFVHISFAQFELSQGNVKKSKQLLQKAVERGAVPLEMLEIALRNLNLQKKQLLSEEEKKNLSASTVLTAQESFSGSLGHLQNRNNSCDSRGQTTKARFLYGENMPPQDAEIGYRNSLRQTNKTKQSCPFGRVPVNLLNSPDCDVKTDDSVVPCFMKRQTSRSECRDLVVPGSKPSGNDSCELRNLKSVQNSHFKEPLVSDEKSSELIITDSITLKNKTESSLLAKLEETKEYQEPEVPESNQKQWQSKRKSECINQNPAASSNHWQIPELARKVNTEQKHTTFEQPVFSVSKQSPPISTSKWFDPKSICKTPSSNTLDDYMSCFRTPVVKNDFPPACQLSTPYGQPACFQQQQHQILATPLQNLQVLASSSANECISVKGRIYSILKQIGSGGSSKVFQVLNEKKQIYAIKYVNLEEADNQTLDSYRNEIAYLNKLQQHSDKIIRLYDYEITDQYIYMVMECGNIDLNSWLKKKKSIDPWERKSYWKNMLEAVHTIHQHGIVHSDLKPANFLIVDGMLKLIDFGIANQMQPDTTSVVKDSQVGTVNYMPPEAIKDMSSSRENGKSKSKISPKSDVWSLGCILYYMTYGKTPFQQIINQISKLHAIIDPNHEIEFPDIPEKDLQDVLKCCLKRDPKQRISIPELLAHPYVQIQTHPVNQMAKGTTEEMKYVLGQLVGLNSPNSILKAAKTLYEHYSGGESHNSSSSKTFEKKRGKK
PTK2 (human), sequence (Q05397 whole entry, looked up): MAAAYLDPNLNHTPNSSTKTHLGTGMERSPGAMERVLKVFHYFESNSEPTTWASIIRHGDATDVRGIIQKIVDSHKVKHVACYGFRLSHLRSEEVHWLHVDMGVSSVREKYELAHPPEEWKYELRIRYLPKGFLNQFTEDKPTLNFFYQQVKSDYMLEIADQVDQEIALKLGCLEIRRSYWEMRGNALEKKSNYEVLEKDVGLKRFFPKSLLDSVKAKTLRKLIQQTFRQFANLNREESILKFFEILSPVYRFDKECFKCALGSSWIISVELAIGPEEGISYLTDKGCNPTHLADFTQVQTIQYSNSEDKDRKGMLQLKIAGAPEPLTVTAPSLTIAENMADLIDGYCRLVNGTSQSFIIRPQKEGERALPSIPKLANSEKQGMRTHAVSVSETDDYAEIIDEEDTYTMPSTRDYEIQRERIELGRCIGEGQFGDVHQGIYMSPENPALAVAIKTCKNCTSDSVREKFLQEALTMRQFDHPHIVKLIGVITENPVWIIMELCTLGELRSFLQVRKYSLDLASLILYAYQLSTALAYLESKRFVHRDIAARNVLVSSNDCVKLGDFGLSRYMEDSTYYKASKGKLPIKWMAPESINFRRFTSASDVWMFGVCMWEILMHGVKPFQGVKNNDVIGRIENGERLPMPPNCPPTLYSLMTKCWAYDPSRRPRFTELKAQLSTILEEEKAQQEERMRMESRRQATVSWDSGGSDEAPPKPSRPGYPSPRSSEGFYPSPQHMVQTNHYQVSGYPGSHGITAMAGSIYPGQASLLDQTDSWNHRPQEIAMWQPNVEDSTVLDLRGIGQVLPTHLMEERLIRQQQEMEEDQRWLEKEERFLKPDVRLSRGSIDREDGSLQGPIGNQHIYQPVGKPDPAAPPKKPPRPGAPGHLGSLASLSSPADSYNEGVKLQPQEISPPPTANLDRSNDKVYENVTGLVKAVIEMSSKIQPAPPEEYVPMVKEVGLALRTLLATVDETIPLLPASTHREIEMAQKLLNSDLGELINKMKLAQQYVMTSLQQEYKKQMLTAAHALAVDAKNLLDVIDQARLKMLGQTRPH
PTK2B (human), sequence (Q14289 whole entry, looked up): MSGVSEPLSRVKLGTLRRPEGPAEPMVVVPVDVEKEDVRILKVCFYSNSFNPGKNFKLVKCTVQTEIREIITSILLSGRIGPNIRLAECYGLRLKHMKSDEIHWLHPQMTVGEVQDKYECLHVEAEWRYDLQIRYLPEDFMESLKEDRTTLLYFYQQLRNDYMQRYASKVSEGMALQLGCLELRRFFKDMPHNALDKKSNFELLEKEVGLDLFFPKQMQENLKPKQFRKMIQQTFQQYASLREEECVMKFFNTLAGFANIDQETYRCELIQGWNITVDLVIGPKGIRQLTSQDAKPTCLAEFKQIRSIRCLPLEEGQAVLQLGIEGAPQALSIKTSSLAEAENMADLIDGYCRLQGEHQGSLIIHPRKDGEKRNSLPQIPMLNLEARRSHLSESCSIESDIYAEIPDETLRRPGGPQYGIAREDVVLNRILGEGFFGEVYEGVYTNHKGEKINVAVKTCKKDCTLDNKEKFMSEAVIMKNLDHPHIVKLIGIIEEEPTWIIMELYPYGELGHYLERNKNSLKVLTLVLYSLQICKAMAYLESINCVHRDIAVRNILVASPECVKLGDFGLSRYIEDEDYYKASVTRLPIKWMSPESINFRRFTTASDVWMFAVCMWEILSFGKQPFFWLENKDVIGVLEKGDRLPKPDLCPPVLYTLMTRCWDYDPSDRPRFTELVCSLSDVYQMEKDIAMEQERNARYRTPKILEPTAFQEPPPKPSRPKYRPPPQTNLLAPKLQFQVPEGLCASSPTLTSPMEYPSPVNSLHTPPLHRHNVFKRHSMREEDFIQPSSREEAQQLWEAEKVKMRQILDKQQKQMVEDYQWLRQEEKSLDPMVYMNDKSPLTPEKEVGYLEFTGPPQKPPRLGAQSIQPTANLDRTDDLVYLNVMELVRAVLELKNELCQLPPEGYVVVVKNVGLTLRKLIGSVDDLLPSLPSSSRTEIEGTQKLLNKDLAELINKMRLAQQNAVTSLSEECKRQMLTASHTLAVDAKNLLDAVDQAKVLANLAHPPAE
PLK3 (human), sequence (Q9H4B4 whole entry, looked up): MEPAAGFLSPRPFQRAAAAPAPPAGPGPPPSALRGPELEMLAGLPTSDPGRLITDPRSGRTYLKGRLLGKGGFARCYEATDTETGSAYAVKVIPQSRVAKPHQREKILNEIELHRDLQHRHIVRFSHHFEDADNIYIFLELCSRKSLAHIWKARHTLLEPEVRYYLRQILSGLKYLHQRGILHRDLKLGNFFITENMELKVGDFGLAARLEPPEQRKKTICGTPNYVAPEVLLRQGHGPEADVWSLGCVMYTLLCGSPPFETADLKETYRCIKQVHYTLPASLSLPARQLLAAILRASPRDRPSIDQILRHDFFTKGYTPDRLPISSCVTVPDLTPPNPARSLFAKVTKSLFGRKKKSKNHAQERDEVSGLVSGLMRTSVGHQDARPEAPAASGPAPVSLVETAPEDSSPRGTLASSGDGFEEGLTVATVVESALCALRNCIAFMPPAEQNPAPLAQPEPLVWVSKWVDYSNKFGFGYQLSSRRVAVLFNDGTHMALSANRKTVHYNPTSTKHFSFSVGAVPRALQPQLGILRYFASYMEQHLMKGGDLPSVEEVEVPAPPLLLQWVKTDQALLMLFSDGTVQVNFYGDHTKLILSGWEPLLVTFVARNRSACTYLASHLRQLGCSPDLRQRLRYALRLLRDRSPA
PLK1 (human), sequence (P53350 whole entry, looked up): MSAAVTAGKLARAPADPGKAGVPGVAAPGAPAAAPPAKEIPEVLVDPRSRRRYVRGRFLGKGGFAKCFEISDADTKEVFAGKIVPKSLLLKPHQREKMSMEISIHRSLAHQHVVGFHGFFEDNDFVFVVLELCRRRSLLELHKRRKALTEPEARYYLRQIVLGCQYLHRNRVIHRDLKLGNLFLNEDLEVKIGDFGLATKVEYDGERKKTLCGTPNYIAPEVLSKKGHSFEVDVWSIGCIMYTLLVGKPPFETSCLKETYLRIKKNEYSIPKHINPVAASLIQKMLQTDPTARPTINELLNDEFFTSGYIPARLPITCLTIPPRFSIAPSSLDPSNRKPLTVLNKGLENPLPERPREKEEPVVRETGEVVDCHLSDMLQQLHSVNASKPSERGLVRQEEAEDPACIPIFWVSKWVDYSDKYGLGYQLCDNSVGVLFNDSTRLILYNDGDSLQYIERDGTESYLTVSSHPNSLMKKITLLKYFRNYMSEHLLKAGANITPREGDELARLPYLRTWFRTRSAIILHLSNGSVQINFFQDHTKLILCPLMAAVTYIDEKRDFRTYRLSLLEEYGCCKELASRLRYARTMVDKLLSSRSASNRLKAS
DAPK3 (human), sequence (O43293 whole entry, looked up): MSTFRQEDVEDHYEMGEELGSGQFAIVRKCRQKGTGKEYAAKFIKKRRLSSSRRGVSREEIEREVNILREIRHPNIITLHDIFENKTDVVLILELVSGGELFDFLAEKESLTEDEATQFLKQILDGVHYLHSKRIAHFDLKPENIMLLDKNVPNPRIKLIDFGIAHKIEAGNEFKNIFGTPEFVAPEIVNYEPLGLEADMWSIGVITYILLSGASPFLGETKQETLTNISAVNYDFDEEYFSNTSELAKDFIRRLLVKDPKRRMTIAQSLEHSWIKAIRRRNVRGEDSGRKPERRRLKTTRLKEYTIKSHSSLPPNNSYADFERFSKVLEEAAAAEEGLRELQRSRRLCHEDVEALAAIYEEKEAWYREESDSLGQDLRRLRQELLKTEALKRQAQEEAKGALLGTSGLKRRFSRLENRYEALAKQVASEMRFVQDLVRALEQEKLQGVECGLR
DAPK2 (human), sequence (Q9UIK4 whole entry, looked up): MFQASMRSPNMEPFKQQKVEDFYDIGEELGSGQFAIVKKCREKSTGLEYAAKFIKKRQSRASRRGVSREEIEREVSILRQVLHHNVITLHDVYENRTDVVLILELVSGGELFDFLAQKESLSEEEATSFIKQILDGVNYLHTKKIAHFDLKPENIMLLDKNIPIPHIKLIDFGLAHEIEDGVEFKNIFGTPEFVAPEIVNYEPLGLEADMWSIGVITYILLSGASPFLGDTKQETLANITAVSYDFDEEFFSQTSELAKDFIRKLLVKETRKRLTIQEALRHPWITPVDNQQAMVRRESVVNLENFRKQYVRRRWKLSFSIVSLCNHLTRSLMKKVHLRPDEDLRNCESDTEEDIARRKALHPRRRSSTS

COc1cc(N2CCC(C)(O)CC2)ccc1Nc1ncc2c(n1)N(C1CCCC1)CCC(=O)N2C showed an IC50 [1] of 254 nM, a kinase still bound, per cent of control [2] of 34% and a kinase still bound, per cent of control [3] of 0.2%. The kinase still bound, per cent of control [4] was 6.2%, the kinase still bound, per cent of control [5] was 10% and the kinase still bound, per cent of control [6] was 3.1%. The kinase still bound, per cent of control [7] was 4%, the kinase still bound, per cent of control [8] was 20% and the kinase still bound, per cent of control [9] was 9.1%. For the same compound, the kinase still bound, per cent of control [10] was 31%, the Kd [11] was 20.5 nM and the kinase still bound, per cent of control [11] was 3.8%. For the same compound, the kinase still bound, per cent of control [12] was 14%, the kinase still bound, per cent of control [13] was 6.2% and the kinase still bound, per cent of control [14] was 11%. For the same compound, the kinase still bound, per cent of control [15] was 6.6%, the kinase still bound, per cent of control [16] was 8.2% and the kinase still bound, per cent of control [17] was 30%. The kinase still bound, per cent of control [18] was 14%, the kinase still bound, per cent of control [19] was 1.2% and the kinase still bound, per cent of control [20] was 20%. The kinase still bound, per cent of control [21] was 6.6%, the kinase still bound, per cent of control [22] was 31% and the kinase still bound, per cent of control [23] was 28%. The kinase still bound, per cent of control [24] was 17% and 29%, the kinase still bound, per cent of control [25] was 18% and the kinase still bound, per cent of control [26] was 12%. For the same compound, the kinase still bound, per cent of control [27] was 30%, the kinase still bound, per cent of control [28] was 26% and the kinase still bound, per cent of control [29] was 22%. For the same compound, the kinase still bound, per cent of control [30] was 29%, the kinase still bound, per cent of control [31] was 17% and the kinase still bound, per cent of control [32] was 1.8%. It also gave a kinase still bound, per cent of control [33] of 34%, a kinase still bound, per cent of control [34] of 10% and a kinase still bound, per cent of control [35] of 13%.
Work on COc1cc(N2CCC(O)CC2)ccc1Nc1ncc2c(n1)N(c1ccccc1)CCC(=O)N2C yielded a kinase still bound, per cent of control [3] of 1.2%, a kinase still bound, per cent of control [4] of 12% and a kinase still bound, per cent of control [5] of 30%. It also gave a kinase still bound, per cent of control [6] of 22%, a kinase still bound, per cent of control [7] of 21% and a kinase still bound, per cent of control [11] of 5%. For the same compound, the kinase still bound, per cent of control [12] was 23%, the kinase still bound, per cent of control [13] was 19% and the kinase still bound, per cent of control [15] was 15%. It also gave a kinase still bound, per cent of control [19] of 2%, a kinase still bound, per cent of control [21] of 25% and a kinase still bound, per cent of control [24] of 24%. For the same compound, the kinase still bound, per cent of control [31] was 30%, the kinase still bound, per cent of control [32] was 21% and the kinase still bound, per cent of control [34] was 21%.
